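How tested: cells in 96-well plates exposed to compound for 48 hours at five concentrations. GI50 is the concentration that inhibits growth by half. TGI: total growth inhibition.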
Legend:
Test in all cases: growth of human tumour cells (NCI), 48 h
786-0 renal = test system: 786-0 renal
A498 renal = test system: A498 renal
A549 NSCLC = test system: A549 NSCLC
ACHN renal = test system: ACHN renal
BT-549 breast = test system: BT-549 breast
CAKI-1 renal = test system: CAKI-1 renal
CCRF-CEM leukemia = test system: CCRF-CEM leukemia
COLO 205 colon = test system: COLO 205 colon
DU-145 prostate = test system: DU-145 prostate
EKVX NSCLC = test system: EKVX NSCLC
HCC-2998 colon = test system: HCC-2998 colon
HCT-116 colon = test system: HCT-116 colon
HCT-15 colon = test system: HCT-15 colon
HL-60(TB) leukemia = test system: HL-60(TB) leukemia
HOP-62 NSCLC = test system: HOP-62 NSCLC
HOP-92 NSCLC = test system: HOP-92 NSCLC
HS 578T breast = test system: HS 578T breast
IGROV1 ovarian = test system: IGROV1 ovarian
K-562 leukemia = test system: K-562 leukemia
LOX IMVI melanoma = test system: LOX IMVI melanoma
M14 melanoma = test system: M14 melanoma
MCF7 breast = test system: MCF7 breast
MDA-MB-231 breast = test system: MDA-MB-231 breast
MDA-MB-435 = test system: MDA-MB-435
MOLT-4 leukemia = test system: MOLT-4 leukemia
NCI-H226 lung = test system: NCI-H226 lung
NCI-H23 lung = test system: NCI-H23 lung
NCI-H460 lung = test system: NCI-H460 lung
NCI-H522 lung = test system: NCI-H522 lung
NCI/ADR-RES ovarian = test system: NCI/ADR-RES ovarian
OVCAR-3 ovarian = test system: OVCAR-3 ovarian
OVCAR-5 ovarian = test system: OVCAR-5 ovarian
OVCAR-8 ovarian = test system: OVCAR-8 ovarian
PC-3 prostate = test system: PC-3 prostate
RPMI-8226 leukemia = test system: RPMI-8226 leukemia
RXF 393 renal = test system: RXF 393 renal
SF-268 CNS = test system: SF-268 CNS
SF-295 CNS = test system: SF-295 CNS
SF-539 CNS = test system: SF-539 CNS
SK-MEL-2 melanoma = test system: SK-MEL-2 melanoma
SK-MEL-28 melanoma = test system: SK-MEL-28 melanoma
SK-MEL-5 melanoma = test system: SK-MEL-5 melanoma
SN12C renal = test system: SN12C renal
SNB-19 CNS = test system: SNB-19 CNS
SNB-75 CNS = test system: SNB-75 CNS
SR leukemia = test system: SR leukemia
SW-620 colon = test system: SW-620 colon
T-47D breast = test system: T-47D breast
TK-10 renal = test system: TK-10 renal
UACC-257 melanoma = test system: UACC-257 melanoma
UACC-62 melanoma = test system: UACC-62 melanoma
UO-31 renal = test system: UO-31 renal

Molecule `COc1ccc2c(c1)C=CC1C2CC[C@]2(C)C(NC(=O)/C=C/c3ccc(O)c(O)c3)CCC12` (some centres undefined) has a GI50 (786-0 renal) of 2.9 µM, a TGI (786-0 renal) of 15.7 µM and a GI50 (A498 renal) of 19.9 µM. It also gave a TGI (A498 renal) of 53.6 µM, a GI50 (A549 NSCLC) of 11.4 µM and a TGI (A549 NSCLC) of 29.5 µM. For the same molecule, the GI50 (ACHN renal) was 7.5 µM, the TGI (ACHN renal) was 19.8 µM and the GI50 (BT-549 breast) was 19.6 µM. The TGI (BT-549 breast) was 56.9 µM, the GI50 (CAKI-1 renal) was 7.1 µM and the TGI (CAKI-1 renal) was 24.7 µM. The GI50 (CCRF-CEM leukemia) was 4.36 µM, the TGI (CCRF-CEM leukemia) was 19.5 µM and the GI50 (COLO 205 colon) was 2.61 µM. It also gave a TGI (COLO 205 colon) of 7.75 µM, a GI50 (DU-145 prostate) of 16.1 µM and a TGI (DU-145 prostate) of 39.6 µM. It also gave a GI50 (EKVX NSCLC) of 18.8 µM, a TGI (EKVX NSCLC) of 56.5 µM and a GI50 (HCC-2998 colon) of 14.4 µM. It also gave a TGI (HCC-2998 colon) of 34.6 µM, a GI50 (HCT-116 colon) of 4.49 µM and a TGI (HCT-116 colon) of 17.4 µM. For the same molecule, the GI50 (HCT-15 colon) was 3.05 µM, the TGI (HCT-15 colon) was 13.3 µM and the GI50 (HL-60(TB) leukemia) was 5.01 µM. The TGI (HL-60(TB) leukemia) was 23.8 µM, the GI50 (HOP-62 NSCLC) was 1.21 µM and the TGI (HOP-62 NSCLC) was 7.59 µM. The GI50 (HOP-92 NSCLC) was 10.6 µM, the TGI (HOP-92 NSCLC) was 26.5 µM and the GI50 (HS 578T breast) was 27.2 µM. It also gave a TGI (HS 578T breast) greater than 100 µM, a GI50 (IGROV1 ovarian) of 5.93 µM and a TGI (IGROV1 ovarian) of 24.7 µM. It also gave a GI50 (K-562 leukemia) of 13.9 µM, a TGI (K-562 leukemia) of 49.6 µM and a GI50 (LOX IMVI melanoma) of 6.45 µM. For the same molecule, the TGI (LOX IMVI melanoma) was 20.2 µM, the GI50 (M14 melanoma) was 13.7 µM and the TGI (M14 melanoma) was 30.8 µM. For the same molecule, the GI50 (MCF7 breast) was 6.28 µM, the TGI (MCF7 breast) was 20.8 µM and the GI50 (MDA-MB-231 breast) was 12.1 µM. For the same molecule, the TGI (MDA-MB-231 breast) was 25.9 µM, the GI50 (MDA-MB-435) was 14.7 µM and the TGI (MDA-MB-435) was 36.6 µM. For the same molecule, the GI50 (MOLT-4 leukemia) was 5.56 µM, the TGI (MOLT-4 leukemia) was 22.7 µM and the GI50 (NCI-H226 lung) was 15.3 µM. For the same molecule, the TGI (NCI-H226 lung) was 41.3 µM, the GI50 (NCI-H23 lung) was 16.3 µM and the TGI (NCI-H23 lung) was 38.3 µM. The GI50 (NCI-H460 lung) was 3.93 µM, the TGI (NCI-H460 lung) was 14.4 µM and the GI50 (NCI-H522 lung) was 3.41 µM. The TGI (NCI-H522 lung) was 10.9 µM, the GI50 (NCI/ADR-RES ovarian) was 11.8 µM and the TGI (NCI/ADR-RES ovarian) was 33.5 µM. The GI50 (OVCAR-3 ovarian) was 7.19 µM, the TGI (OVCAR-3 ovarian) was 27.8 µM and the GI50 (OVCAR-5 ovarian) was 20.1 µM. It also gave a TGI (OVCAR-5 ovarian) of 38.9 µM, a GI50 (OVCAR-8 ovarian) of 14.2 µM and a TGI (OVCAR-8 ovarian) greater than 100 µM. The GI50 (PC-3 prostate) was 4.64 µM, the TGI (PC-3 prostate) was 18 µM and the GI50 (RPMI-8226 leukemia) was 7.98 µM. The TGI (RPMI-8226 leukemia) was 39.1 µM, the GI50 (RXF 393 renal) was 17.6 µM and the TGI (RXF 393 renal) was 45.8 µM. The GI50 (SF-268 CNS) was 17.2 µM, the TGI (SF-268 CNS) was 33 µM and the GI50 (SF-295 CNS) was 31.7 µM. For the same molecule, the TGI (SF-295 CNS) was 70.3 µM, the GI50 (SF-539 CNS) was 18.6 µM and the TGI (SF-539 CNS) was 43.5 µM. It also gave a GI50 (SK-MEL-2 melanoma) of 25.7 µM, a TGI (SK-MEL-2 melanoma) of 62.1 µM and a GI50 (SK-MEL-28 melanoma) of 16.2 µM. The TGI (SK-MEL-28 melanoma) was 32 µM, the GI50 (SK-MEL-5 melanoma) was 14.9 µM and the TGI (SK-MEL-5 melanoma) was 40.1 µM. The GI50 (SN12C renal) was 13.6 µM, the TGI (SN12C renal) was 32.2 µM and the GI50 (SNB-19 CNS) was 5.41 µM. For the same molecule, the TGI (SNB-19 CNS) was 19.6 µM, the GI50 (SNB-75 CNS) was 6.01 µM and the TGI (SNB-75 CNS) was 20.5 µM. For the same molecule, the GI50 (SR leukemia) was 4.06 µM, the TGI (SR leukemia) was 17.1 µM and the GI50 (SW-620 colon) was 9.93 µM. For the same molecule, the TGI (SW-620 colon) was 55.2 µM, the GI50 (T-47D breast) was 12.2 µM and the TGI (T-47D breast) was 29 µM. For the same molecule, the GI50 (TK-10 renal) was 2.82 µM, the TGI (TK-10 renal) was 10.3 µM and the GI50 (UACC-257 melanoma) was 20.8 µM. For the same molecule, the TGI (UACC-257 melanoma) was 42.7 µM, the GI50 (UACC-62 melanoma) was 14.9 µM and the TGI (UACC-62 melanoma) was 30.8 µM. The GI50 (UO-31 renal) was 10.2 µM and the TGI (UO-31 renal) was 27.3 µM.
